Test in all cases: Growth inhibition GI50 in vitro (CCK8/MTT, 72 h)
Format in all cases: cell-based, human

One assay concerns SK-BR-3 (Her2 amp). Particulars: Homo sapiens, SK-BR-3; HER2 positive cell line; range of GI50; read-out: GI50 SK-BR-3.
The subject of assay [1] is PC-9ER (EGFR delE746-A750/T790M). Particulars: Homo sapiens, PC-9/ER; EGFR mutant cell line; range of GI50; read-out: GI50 PC9ER.
A further assay concerns H1975 (EGFR L858R/T790M). Particulars: Homo sapiens, NCI-H1975; EGFR mutant cell line; range of GI50; read-out: GI50 H1975.
The next assay has as its system PC-9 (EGFR dE746-A750). Particulars: Homo sapiens; EGFR mutant cell line; range of GI50; read-out: GI50 PC-9.
A further assay deals with HCC827 (EGFR dE746-A750). Particulars: Homo sapiens, HCC827; EGFR mutant cell line; range of GI50; read-out: GI50 HCC827.
For the next assay, the system named is A549 (EGFR WT). Particulars: Homo sapiens, A549; EGFR wild type cell line; range of GI50; read-out: GI50 A549.
Assay [2] relates to H460 (EGFR wt, Kras G61H). Particulars: Homo sapiens, NCI-H460; EGFR wild type cell line; range of GI50; read-out: GI50 H460.
The test system of assay [3] is A431 (EGFR WT, amplification and high expression). Particulars: Homo sapiens, A-431; EGFR wild type cell line; range of GI50; read-out: GI50 A431.
The subject of assay [4] is H1299 (EGFR wt, Nras Q61K). Particulars: Homo sapiens, NCI-H1299; EGFR wild type cell line; range of GI50; read-out: GI50 H1299.
The next assay has as its system N87 (HER2 Amp). Particulars: Homo sapiens; HER2 positive cell line; range of GI50; read-out: GI50 N87.
The subject of the next assay is AU565 (Her2 amp). Particulars: Homo sapiens, AU565; HER2 positive cell line; range of GI50; read-out: GI50 AU-565.

As usually defined, the GI50 is the concentration that inhibits growth by half. For the compound `C=CC(=O)Nc1cc(Nc2nccc(-n3ccc4cc(F)c(F)cc43)n2)c(OC)cc1N(C)CCN(C)C` [Compound 103, N-(5-(4-(5,6-difluoro-1H-indol-1-yl)-pyrimidin-2-ylamino)-2-(2-(dimethylamino-ethyl)-methyl-amino)-4-methoxyl-phenyl)-acrylamide], the GI50 is 100 to 1000 nM in the assay with SK-BR-3 (Her2 amp); 10 to 100 nM in assay [1]; 10 to 100 nM in the assay on H1975 (EGFR L858R/T790M); 10 to 100 nM in the assay with PC-9 (EGFR dE746-A750); 10 to 100 nM in the assay with HCC827 (EGFR dE746-A750); above 1000 nM in the assay on A549 (EGFR WT). In addition, the GI50 was above 1000 nM in assay [2]; 100 to 1000 nM in assay [3]; above 1000 nM in assay [4]; 10 to 100 nM with N87 (HER2 Amp); 100 to 1000 nM in the assay on AU565 (Her2 amp).

Regarding `C=CC(=O)Nc1cc(Nc2nccc(-n3nnc4ccccc43)n2)c(OC)cc1N(C)CCN(C)C` [Compound 107], the GI50 with SK-BR-3 (Her2 amp) is 10 to 100 nM; in assay [1], 10 to 100 nM; in the assay on H1975 (EGFR L858R/T790M), 10 to 100 nM; in the assay on PC-9 (EGFR dE746-A750) it was 10 to 100 nM; in the assay with HCC827 (EGFR dE746-A750), 10 to 100 nM; in the assay on A549 (EGFR WT), above 1000 nM. For the same compound, the 50% growth inhibitory concentration (GI50) in assay [2] is above 1000 nM; in assay [3], above 1000 nM; in [4], above 1000 nM; with N87 (HER2 Amp), 10 to 100 nM; in the assay on AU565 (Her2 amp), 100 to 1000 nM.

With `C=CC(=O)Nc1cc(Nc2ncnc(Nc3cccc(Cl)c3)n2)c(OC)cc1N(C)CCN(C)C` [Compound 108, N-(5-(4-(3-chloro-phenylamino)-[1,3,5]triazin-2-ylamino)-2-((2-dimethylamino-ethyl)-methyl-amino)-4-methoxyl-phenyl)-acrylamide], the GI50 is 10 to 100 nM in the assay on SK-BR-3 (Her2 amp); below 10 nM in assay [1]; 10 to 100 nM in the assay on H1975 (EGFR L858R/T790M); below 10 nM in the assay with PC-9 (EGFR dE746-A750); below 10 nM in the assay with HCC827 (EGFR dE746-A750); above 1000 nM with A549 (EGFR WT). The GI50 in [2] is above 1000 nM; in assay [3] it was 100 to 1000 nM; in assay [4], above 1000 nM; in the assay with N87 (HER2 Amp), below 10 nM; in the assay on AU565 (Her2 amp), 10 to 100 nM.

For the compound `C=CC(=O)Nc1cc(Nc2ncnc(Nc3ccc(F)c(Cl)c3)n2)c(OC)cc1N(C)CCN(C)C` [Compound 109, N-(5-(4-(3-chloro-4-fluoro-phenylamino)-[1,3,5]triazin-2-ylamino)-2-((2-dimethylamino-ethyl)-methyl-amino)-4-methoxyl-phenyl)-acrylamide], the GI50 is 10 to 100 nM in the assay with SK-BR-3 (Her2 amp); 10 to 100 nM in [1]; 10 to 100 nM in the assay on H1975 (EGFR L858R/T790M); 10 to 100 nM with PC-9 (EGFR dE746-A750); 10 to 100 nM in the assay with HCC827 (EGFR dE746-A750); above 1000 nM in the assay with A549 (EGFR WT). The GI50 in assay [2] is above 1000 nM; in assay [3], 100 to 1000 nM; in assay [4], above 1000 nM; in the assay on N87 (HER2 Amp) it was 10 to 100 nM; with AU565 (Her2 amp), 10 to 100 nM.

In the case of `C=CC(=O)Nc1cc(Nc2ncnc(Nc3cccc(Cl)c3F)n2)c(OC)cc1N(C)CCN(C)C` [Compound 110, N-(5-(4-(3-chloro-2-fluoro-phenylamino)-[1,3,5]triazin-2-ylamino)-2-((2-dimethylamino-ethyl)-methyl-amino)-4-methoxyl-phenyl)-acrylamide], the GI50 was 10 to 100 nM with SK-BR-3 (Her2 amp); below 10 nM in [1]; 10 to 100 nM in the assay on H1975 (EGFR L858R/T790M); below 10 nM in the assay with PC-9 (EGFR dE746-A750); below 10 nM in the assay with HCC827 (EGFR dE746-A750); above 1000 nM in the assay with A549 (EGFR WT). In addition, the GI50 in assay [2] was above 1000 nM; in [3], 100 to 1000 nM; in [4], above 1000 nM; in the assay with N87 (HER2 Amp), below 10 nM; with AU565 (Her2 amp) it was 10 to 100 nM.

For `C=CC(=O)Nc1cc(Nc2ncnc(Nc3cccc(C(F)(F)F)c3)n2)c(OC)cc1N(C)CCN(C)C` [Compound 113, N-(5-(4-(3-trifluoromethyl-phenylamino)-[1,3,5]triazin-2-ylamino)-2-((2-dimethylamino-ethyl)-methyl-amino)-4-methoxyl-phenyl)-acrylamide], the GI50 was 100 to 1000 nM with SK-BR-3 (Her2 amp); below 10 nM in assay [1]; 10 to 100 nM in the assay on H1975 (EGFR L858R/T790M); below 10 nM in the assay with PC-9 (EGFR dE746-A750); below 10 nM with HCC827 (EGFR dE746-A750); above 1000 nM in the assay with A549 (EGFR WT). The GI50 in [2] is above 1000 nM; in [3] it was 100 to 1000 nM; in assay [4] it was above 1000 nM; in the assay with N87 (HER2 Amp) it was 10 to 100 nM; with AU565 (Her2 amp), 10 to 100 nM.

Turning to `C=CC(=O)Nc1cc(Nc2cc(Nc3cccc(Br)c3)ncn2)c(OC)cc1N(C)CCN(C)C` [Compound 133, N-(5-(6-(3-bromophenylamino)-pyrimidin-4-ylamino)-2-((2-dimethylamino-ethyl)-methyl-amino)-4-methoxyl-phenyl)-acrylamide], the GI50 in the assay on SK-BR-3 (Her2 amp) is below 10 nM; in assay [1], below 10 nM; with H1975 (EGFR L858R/T790M), below 10 nM; in the assay on PC-9 (EGFR dE746-A750) it was below 10 nM; in the assay with HCC827 (EGFR dE746-A750) it was below 10 nM; in the assay with A549 (EGFR WT) it was above 1000 nM. Also, the GI50 in assay [2] is above 1000 nM; in assay [3], 10 to 100 nM; in assay [4], above 1000 nM; with N87 (HER2 Amp), below 10 nM; with AU565 (Her2 amp), below 10 nM.

As to `C=CC(=O)Nc1cc(Nc2cc(Nc3cccc(C(F)(F)F)c3)ncn2)c(OC)cc1N(C)CCN(C)C` [Compound 134], the GI50 in the assay on SK-BR-3 (Her2 amp) is 10 to 100 nM; in [1], 10 to 100 nM; with H1975 (EGFR L858R/T790M), 10 to 100 nM; in the assay with PC-9 (EGFR dE746-A750), below 10 nM; in the assay on HCC827 (EGFR dE746-A750) it was below 10 nM; in the assay with A549 (EGFR WT) it was above 1000 nM. In addition, the GI50 in assay [2] is above 1000 nM; in assay [3], 100 to 1000 nM; in [4] it was above 1000 nM; with N87 (HER2 Amp), 10 to 100 nM; in the assay on AU565 (Her2 amp), 10 to 100 nM.

As to `C#Cc1cccc(Nc2cc(Nc3cc(NC(=O)C=C)c(N(C)CCN(C)C)cc3OC)ncn2)c1` [Compound 135, N-(5-(6-(3-alkynyl-phenylamino)-pyrimidin-4-ylamino)-2-((2-dimethylamino-ethyl)-methyl-amino)-4-methoxyl-phenyl)-acrylamide], the GI50 in the assay on SK-BR-3 (Her2 amp) was below 10 nM; in [1], below 10 nM; in the assay with H1975 (EGFR L858R/T790M), below 10 nM; in the assay on PC-9 (EGFR dE746-A750), below 10 nM; in the assay on HCC827 (EGFR dE746-A750), below 10 nM; in the assay on A549 (EGFR WT), above 1000 nM. Besides, the GI50 is above 1000 nM in [2]; 10 to 100 nM in assay [3]; above 1000 nM in assay [4]; 10 to 100 nM in the assay with N87 (HER2 Amp); below 10 nM in the assay on AU565 (Her2 amp).

For the compound `C=CC(=O)Nc1cc(Nc2cc(Nc3cc(F)cc(Br)c3)ncn2)c(OC)cc1N(C)CCN(C)C` [Compound 139, N-(5-(6-(3-bromo-5-fluoro-phenylamino)-pyrimidin-4-ylamino)-2-((2-dimethylamino-ethyl)-methyl-amino)-4-methoxyl-phenyl)-acrylamide], the GI50 in the assay with SK-BR-3 (Her2 amp) is below 10 nM; in assay [1], below 10 nM; in the assay on H1975 (EGFR L858R/T790M), 10 to 100 nM; with PC-9 (EGFR dE746-A750), below 10 nM; with HCC827 (EGFR dE746-A750), below 10 nM; with A549 (EGFR WT) it was above 1000 nM. For the same compound, the 50% growth inhibitory concentration (GI50) in assay [2] was above 1000 nM; in assay [3], 100 to 1000 nM; in assay [4] it was above 1000 nM; in the assay with N87 (HER2 Amp) it was below 10 nM; with AU565 (Her2 amp), below 10 nM.

The values above are taken from US10342796B2, “Acrylanilide derivative, preparation method, and applications thereof in pharmacy” (Ancureall Pharmaceutical (Shanghai) Co., Ltd., priority 2015, dated 2019).
